In the test the target is T1, PIKfyve (Homo sapiens, UniProt Q9Y2I7).
T1 construct: endogenous in cells; host or cells: VCaP
T1 sequence (Q9Y2I7 whole entry): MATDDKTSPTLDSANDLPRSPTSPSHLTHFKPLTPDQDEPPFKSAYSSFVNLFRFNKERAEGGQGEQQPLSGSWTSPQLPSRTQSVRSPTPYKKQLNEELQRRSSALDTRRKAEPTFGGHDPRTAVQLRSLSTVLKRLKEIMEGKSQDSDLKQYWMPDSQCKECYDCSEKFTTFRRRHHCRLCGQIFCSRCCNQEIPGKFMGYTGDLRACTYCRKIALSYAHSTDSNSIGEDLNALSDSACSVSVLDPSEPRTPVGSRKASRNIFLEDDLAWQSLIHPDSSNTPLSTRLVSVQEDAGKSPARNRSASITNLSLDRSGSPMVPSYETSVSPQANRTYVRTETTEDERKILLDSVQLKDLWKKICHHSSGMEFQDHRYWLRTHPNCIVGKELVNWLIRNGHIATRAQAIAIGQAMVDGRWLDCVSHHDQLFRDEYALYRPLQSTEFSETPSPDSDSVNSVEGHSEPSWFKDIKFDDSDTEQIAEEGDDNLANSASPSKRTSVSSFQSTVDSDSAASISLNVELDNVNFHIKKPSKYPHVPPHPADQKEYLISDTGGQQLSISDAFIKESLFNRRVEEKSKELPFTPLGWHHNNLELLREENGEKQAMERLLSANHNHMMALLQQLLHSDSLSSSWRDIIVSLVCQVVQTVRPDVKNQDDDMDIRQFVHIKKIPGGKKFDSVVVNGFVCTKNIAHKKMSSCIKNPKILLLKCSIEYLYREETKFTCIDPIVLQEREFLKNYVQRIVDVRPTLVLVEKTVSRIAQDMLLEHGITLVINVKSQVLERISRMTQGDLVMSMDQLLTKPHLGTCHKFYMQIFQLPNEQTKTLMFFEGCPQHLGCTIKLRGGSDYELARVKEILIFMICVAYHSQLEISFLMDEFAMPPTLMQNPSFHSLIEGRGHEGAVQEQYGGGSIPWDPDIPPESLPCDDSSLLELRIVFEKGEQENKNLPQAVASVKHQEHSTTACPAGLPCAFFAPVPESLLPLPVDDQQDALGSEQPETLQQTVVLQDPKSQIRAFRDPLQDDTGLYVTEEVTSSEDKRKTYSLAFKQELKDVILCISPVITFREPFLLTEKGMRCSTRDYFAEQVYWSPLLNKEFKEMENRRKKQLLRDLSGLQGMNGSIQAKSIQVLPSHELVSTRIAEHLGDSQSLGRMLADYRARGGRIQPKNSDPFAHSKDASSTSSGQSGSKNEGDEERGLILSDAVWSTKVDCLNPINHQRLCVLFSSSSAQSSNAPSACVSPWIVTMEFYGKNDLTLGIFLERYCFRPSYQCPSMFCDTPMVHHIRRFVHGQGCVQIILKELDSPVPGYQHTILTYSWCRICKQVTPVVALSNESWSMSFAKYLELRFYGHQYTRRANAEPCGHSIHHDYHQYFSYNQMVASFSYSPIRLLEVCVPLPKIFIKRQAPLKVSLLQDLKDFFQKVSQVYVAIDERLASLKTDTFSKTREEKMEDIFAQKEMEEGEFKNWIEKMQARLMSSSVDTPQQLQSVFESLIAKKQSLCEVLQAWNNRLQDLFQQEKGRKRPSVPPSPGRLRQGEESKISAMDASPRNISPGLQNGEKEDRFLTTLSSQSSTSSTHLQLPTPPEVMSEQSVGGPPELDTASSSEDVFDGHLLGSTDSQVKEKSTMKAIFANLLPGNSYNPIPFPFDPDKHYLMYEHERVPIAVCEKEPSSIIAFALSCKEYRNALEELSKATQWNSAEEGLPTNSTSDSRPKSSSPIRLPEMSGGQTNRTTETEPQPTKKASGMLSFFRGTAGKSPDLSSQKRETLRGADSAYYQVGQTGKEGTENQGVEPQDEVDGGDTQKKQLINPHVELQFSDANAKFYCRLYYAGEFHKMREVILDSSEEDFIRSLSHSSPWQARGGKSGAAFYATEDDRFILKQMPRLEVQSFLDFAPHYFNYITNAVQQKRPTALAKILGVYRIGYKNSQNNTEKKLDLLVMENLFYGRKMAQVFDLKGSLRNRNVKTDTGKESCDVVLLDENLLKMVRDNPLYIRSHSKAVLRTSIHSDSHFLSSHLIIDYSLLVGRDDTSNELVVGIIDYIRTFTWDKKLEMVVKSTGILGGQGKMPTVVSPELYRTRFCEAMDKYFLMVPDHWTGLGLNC
Briefly: Degradation of PIKfyve proteins in VCaP tumor cells (24 h, Western blot). The format is cell-based. Conditions: 37° C., compared with DMSO control, WB, read-out: DC50 (concentration that achieves 50% degradation activity). As to the method: Method: 200 μL of cells at a density of 5×10^6 cells/ml were inoculated into a 6-well plate, and then different concentrations of drugs were added. The cells were treated at 37° C. for 24 h. The […] was collected and washed with PBS twice. Then, 100-200 μL of 1×SDS lysate was added, and the cell lysate was collected into a centrifuge tube. The cells were disrupted ultrasonically for 10-20 sec, and boiled for 10 min. Protein samples were subjected to SDS-PAGE electrophoresis at a voltage of 90 V, transferred to PVDF membranes at 110 V, blocked with 5% BSA for 4 h, incubated with primary antibodies (PIKfyve, GAPDH) at 4° C. overnight, and incubated with secondary antibodies (anti-Rabbit IgG or anti-Mouse IgG) at room temperature. The membranes were washed with TBST buffer, developed with an ECL developing solution, and then imaged to obtain protein band signals, with single-concentration WB results as shown in FIG. 1. Compared with the DMSO control group, the concentration that achieves 50% degradation activity is defined as DC50.
(Immunoblotting shows a protein as a band on a membrane.)
Take `Cc1cccc(-c2ccn(-c3cc(N4CCOCC4)nc(OC4CCN(c5ccc(NC(=O)NC6CCN(C(=O)C[C@H](NC(=O)[C@@H]7C[C@@H](O)CN7C(=O)[C@@H](NC(=O)C7(F)CC7)C(C)(C)C)c7ccc(-c8scnc8C)cc7)CC6)cc5)CC4)n3)n2)c1` [Example 82, (2S,4R)-1-((S)-2-(1-fluorocyclopropane-1-carboxamido)-3,3-dimethylbutanoyl)-4-hydroxy-N—((S)-1-(4-(4-methylthiazol-5-yl)phenyl)-3-(4-(3-(4-(4-((4-morpholino-6-(3-(m-tolyl)-1H-pyrazol-1-yl)pyrimidin-2-yl)oxy)piperidin-1-yl)phenyl)ureido)piperidin-1-yl)-3-oxopropyl)pyrrolidine-2-carboxamide]: the DC50 lay in the range of 0.001 to 0.1 µM.
For the compound `Cc1cccc(/C=N/Nc2cc(N3CCOCC3)nc(OCCc3ccc(NC(=O)CCCCCCCCCC(=O)N[C@H](C(=O)N4C[C@H](O)C[C@H]4C(=O)NCc4ccc(-c5scnc5C)cc4)C(C)(C)C)cc3)n2)c1` [Example 44, N^1—((S)-1-((2S,4R)-4-hydroxy-2-((4-(4-methylthiazol-5-yl)benzyl)carbamoyl)pyrrolidine-1-yl)-3,3-dimethyl-1-oxobutan-2-yl)-N^11-(4-(2-((4-(2-((E)-3-methylbenzylidene) hydrazino)-6-morpholinopyrimidin-2-yl)oxy)ethyl)phenyl)undecanediamide], the DC50 was 0.001 to 0.1 µM.
`Cc1cccc(/C=N/Nc2cc(N3CCOCC3)nc(OCCc3ccc(NC(=O)CCCCCCCCC(=O)N[C@H](C(=O)N4C[C@H](O)C[C@H]4C(=O)NCc4ccc(-c5scnc5C)cc4)C(C)(C)C)cc3)n2)c1` [Example 40, N^1—((S)-1-((2S,4R)-4-hydroxy-2-((4-(4-methylthiazol-5-yl)benzyl)carbamoyl)pyrrolidine-1-yl)-3,3-dimethyl-1-oxobutan-2-yl)-N^10-(4-(2-((4-(2-((E)-3-methylbenzylidene) hydrazino)-6-morpholinopyrimidin-2-yl)oxy)ethyl)phenyl)decanediamide]: the DC50 fell in the range of 0.001 to 0.1 µM.
Take `Cc1cccc(/C=N/Nc2cc(N3CCOCC3)nc(OCCc3ccc(NC(=O)CCCCCCCCC(=O)Nc4cccc5c4CN(C4CCC(=O)NC4=O)C5=O)cc3)n2)c1` (stereo not drawn) [Example 22, (E)-N^1-(2-(2,6-dioxopiperidin-3-yl)-1-oxoisoindolin-4-yl)-N^10-(4-(2-((4-(2-(3-methylbenzylidene)hydrazino)-6-morpholinopyrimidin-2-yl)oxy)ethyl)phenyl)decanediamide]: the DC50 was 0.1 to 10 µM.
Under `Cc1cccc(-c2ccn(-c3cc(N4CCOCC4)nc(OC4CCN(c5ccc(NC(=O)CC[C@H](NC(=O)[C@@H]6C[C@@H](O)CN6C(=O)[C@@H](NC(=O)C6(F)CC6)C(C)(C)C)c6ccc(-c7scnc7C)cc6)cc5)CC4)n3)n2)c1` [Example 68, (2S,4R)-1-((S)-2-(1-fluorocyclopropane-1-carboxamido)-3,3-dimethylbutanoyl)-4-hydroxy-N—((S)-1-(4-(4-methylthiazol-5-yl)phenyl)-4-((4-(4-((4-morpholino-6-(3-(m-tolyl)-1H-pyrazol-1-yl)pyrimidin-2-yl)oxy)piperidin-1-yl)phenyl)amino)-4-oxobutyl)pyrrolidine-2-carboxamide] stands 0.001 to 0.1 µM.
The value for `Cc1cccc(/C=N/Nc2cc(N3CCOCC3)nc(OCCc3ccc(NC(=O)CSC(C)(C)[C@H](NC(=O)C4(F)CC4)C(=O)N4C[C@H](O)C[C@H]4C(=O)NCc4ccc(-c5scnc5C)cc4)cc3)n2)c1` [Example 57, (2S,4R)-1-((R)-2-(1-fluorocyclopropane-1-carboxamido)-3-methyl-3-((2-((4-(2-((4-(2-((E)-3-methylbenzylidene)hydrazino)-6-morpholinopyrimidin-2-yl)oxy)ethyl)phenyl)amino)-2-oxoethyl)thio)butanoyl)-4-hydroxy-N-(4-(4-methylthiazol-5-yl)benzyl)pyrrolidine-2-carboxamide] was 0.001 to 0.1 µM; that for `Cc1cccc(/C=N/Nc2cc(N3CCOCC3)nc(OCCc3ccc(NC(=O)CCCNC(=O)CSC(C)(C)[C@H](NC(=O)C4(F)CC4)C(=O)N4C[C@H](O)C[C@H]4C(=O)NCc4ccc(-c5scnc5C)cc4)cc3)n2)c1` [Example 59, (2S,4R)-1-((R)-2-(1-fluorocyclopropane-1-carboxamido)-3-methyl-3-((2-((4-((4-(2-((4-(2-((E)-3-methylbenzylidene)hydrazino)-6-morpholinopyrimidin-2-yl)oxy)ethyl)phenyl)amino)-4-oxobutyl)amino)-2-oxoethyl)thio)butanoyl)-4-hydroxy-N-(4-(4-methylthiazol-5-yl)benzyl)pyrrolidine-2-carboxamide] was 0.1 to 10 µM; that for `Cc1cccc(-c2ccn(-c3cc(N4CCOCC4)nc(OCCc4ccc(NC(=O)CNC(=O)CC[C@H](NC(=O)[C@@H]5C[C@@H](O)CN5C(=O)[C@@H](NC(=O)C5(F)CC5)C(C)(C)C)c5ccc(-c6scnc6C)cc5)cc4)n3)n2)c1` [Example 65, (2S,4R)-1-((S)-2-(1-fluorocyclopropane-1-carboxamido)-3,3-dimethylbutanoyl)-4-hydroxy-N—((S)-1-(4-(4-methylthiazol-5-yl)phenyl)-4-((2-((4-(2-((4-morpholino-6-(3-(m-tolyl)-1H-pyrazol-1-yl)pyrimidin-2-yl)oxy)ethyl)phenyl)amino)-2-oxoethyl)amino)-4-oxobutyl)pyrrolidine-2-carboxamide] was 0.001 to 0.1 µM.
The value for `Cc1cccc(-c2ccn(-c3cc(N4CCOCC4)nc(OC4CCN(c5ccc(NC(=O)NC6CN(c7cc8c(cc7F)C(=O)N(C7CCC(=O)NC7=O)C8=O)C6)cc5)CC4)n3)n2)c1` (stereo not drawn) [Example 93, 1-(1-(2-(2,6-Dioxopiperidin-3-yl)-6-fluoro-1,3-dioxoisoindolin-5-yl)azetidin-3-yl)-3-(4-(4-((4-morpholino-6-(3-(m-tolyl)-1H-pyrazol-1-yl)pyrimidin-2-yl)oxy)piperidin-1-yl)phenyl)urea] was 0.1 to 10 µM; that for `Cc1cccc(/C=N/Nc2cc(N3CCOCC3)nc(OCCc3ccc(NC(=O)CCCCCCCCC(=O)Nc4ccc5c(c4)C(=O)N(C4CCC(=O)NC4=O)C5)cc3)n2)c1` (stereo not drawn) [Example 31, (E)-N^1-(2-(2,6-dioxopiperidin-3-yl)-3-oxoisoindol-5-yl)-N^10-(4-(2-((4-(2-(3-methylbenzylidene)hydrazino)-6-morpholinopyrimidin-2-yl)oxy)ethyl)phenyl)decanediamide] was 0.1 to 10 µM.
Turning to `Cc1cccc(/C=N/Nc2cc(N3CCOCC3)nc(OCCc3ccc(NC(=O)CCCCC(=O)Nc4ccc5c(c4)C(=O)N(C4CCC(=O)NC4=O)C5)cc3)n2)c1` (stereo not drawn) [Example 29, (E)-N^1-(2-(2,6-dioxopiperidin-3-yl)-3-oxoisoindolin-5-yl)-N^6-(4-(2-((4-(2-(3-methylbenzylidene)hydrazino)-6-morpholinopyrimidin-2-yl)oxy)ethyl)phenyl)adipamide], the DC50 was 0.001 to 0.1 µM.
For `Cc1cccc(/C=N/Nc2cc(N3CCOCC3)nc(OCCc3ccc(NC(=O)CCCCCCC(=O)N[C@H](C(=O)N4C[C@H](O)C[C@H]4C(=O)NCc4ccc(-c5scnc5C)cc4)C(C)(C)C)cc3)n2)c1` [Example 39, N^1—((S)-1-((2S,4R)-4-hydroxy-2-((4-(4-methylthiazol-5-yl)benzyl)carbamoyl)pyrrolidine-1-yl)-3,3-dimethyl-1-oxobutan-2-yl)-N^8-(4-(2-((4-(2-((E)-3-methylbenzylidene) hydrazino)-6-morpholinopyrimidin-2-yl)oxy)ethyl)phenyl)octanediamide], the DC50 was 0.001 to 0.1 µM.
Under `Cc1cccc(/C=N/Nc2cc(N3CCOCC3)nc(OCCc3ccc(NC(=O)CCCCCNC(=O)CSC(C)(C)[C@H](NC(=O)C4(F)CC4)C(=O)N4C[C@H](O)C[C@H]4C(=O)NCc4ccc(-c5scnc5C)cc4)cc3)n2)c1` [Example 60, (2S,4R)-1-((R)-2-(1-fluorocyclopropane-1-carboxamido)-3-methyl-3-((2-((6-((4-(2-((4-(2-((E)-3-methylbenzylidene)hydrazino)-6-morpholinopyrimidin-2-yl)oxy)ethyl)phenyl)amino)-6-oxohexyl)amino)-2-oxoethyl)thio)butanoyl)-4-hydroxy-N-(4-(4-methylthiazol-5-yl)benzyl)pyrrolidine-2-carboxamide] stands 0.1 to 10 µM.
The value for `Cc1cccc(/C=N/Nc2cc(N3CCOCC3)nc(OCCc3ccc(NC(=O)CCCCC(=O)Nc4ccc5c(c4)CN(C4CCC(=O)NC4=O)C5=O)cc3)n2)c1` (stereo not drawn) [Example 25, (E)-N^1-(2-(2,6-dioxopiperidin-3-yl)-1-oxoisoindolin-5-yl)-N^6-(4-(2-((4-(2-(3-methylbenzylidene)hydrazino)-6-morpholinopyrimidin-2-yl)oxy)ethyl)phenyl)adipamide] was 0.1 to 10 µM; that for `Cc1cccc(-c2ccn(-c3cc(N4CCOCC4)nc(OC4CCN(c5ccc(NC(=O)CCCC[C@H](NC(=O)[C@@H]6C[C@@H](O)CN6C(=O)[C@@H](NC(=O)C6(F)CC6)C(C)(C)C)c6ccc(-c7scnc7C)cc6)cc5)CC4)n3)n2)c1` [Example 69, (2S,4R)-1-((S)-2-(1-fluorocyclopropane-1-carboxamido)-3,3-dimethylbutanoyl)-4-hydroxy-N—((S)-1-(4-(4-methylthiazol-5-yl)phenyl)-6-((4-(4-((4-morpholino-6-(3-(m-tolyl)-1H-pyrazol-1-yl)pyrimidin-2-yl)oxy)piperidin-1-yl)phenyl)amino)-6-oxohexyl)pyrrolidine-2-carboxamide] was 0.001 to 0.1 µM.

The record behind these values is US20260317299A1, “PIKFYVE PROTEIN KINASE DEGRADATION AGENT AND USE THEREOF” (Shanghai Institute of Organic Chemistry, Chinese Academy of …, priority 2023, published 2026).
